Patent US7781439B2, “Pyrazolopyrimidines” (Bayer CropScience AG, priority 2005, dated 2010)
Like-named read-outs stand apart in the source and are kept apart here. Marks after values point to notes of the source that are not given here.

Assay: log P determination
Format: physicochemical
Settings: for log P: intermediates of formula drawing 23, table
[1] = values marked *, no footnote carries the single asterisk, general footnote: HPLC gradient method, acetonitrile/0.1% aqueous phosphoric acid
[2] = values printed without asterisk, EEC Directive 79/831 Annex V. A8, HPLC gradient method, acetonitrile/0.1% aqueous phosphoric acid (general footnote)

## COC(=O)c1cnn2c(NC(C)C(C)C)c(-c3c(F)cc(F)cc3F)c(Cl)nc12 (stereo not shown)
  log P: 4.05

## COC(=O)c1cnn2c(NC(C)C(C)(C)C)c(-c3c(F)cc(F)cc3F)c(Cl)nc12 (stereo not shown)
  log P: 4.93

## CC(C)C(C)Nc1c(-c2c(Cl)cc(OC(F)(F)F)cc2Cl)c(Cl)nc2c(C(=O)NS(C)(=O)=O)cnn12 (racemic) [compound 1198]
EEC Directive 79/831 Annex V. A8 by HPLC (gradient method, acetonitrile/0.1% aqueous phosphoric acid)
  log p: 4.85

## CC(C)Nc1c(-c2ccc(Cl)cc2Cl)c(Cl)nc2c(C(=O)O)cnn12 [5-Chloro-6-(2,4-dichlorophenyl)-7-isopropylaminopyrazolo[1,5-a]pyrimidine-3-carboxylic acid]
Starting materials and intermediates, log P / log P*, read-out: log P
  log p: 3.3

## COC(=O)c1cnn2c(N3CCC(C)CC3)c(-c3c(F)cccc3Cl)c(Cl)nc12 [(CH2—CH2—CHCH3—CH2—CH2), 2-Cl-6-F-phenyl]
  log P: 4.61

## COC(=O)c1cnn2c(NC(C)C(F)(F)F)c(-c3c(F)cc(F)cc3F)c(Cl)nc12 (stereo not shown) [CH(CH3)(CF3), H, 2,4,6-trifluorophenyl]
  log P: 3.53

## COC(=O)c1cnn2c(NC(C)C(F)(F)F)c(-c3ccc(F)cc3Cl)c(Cl)nc12 (stereo not shown) [CH(CH3)(CF3), H, 2-Cl-4-F-phenyl]
  log P: 3.75

## COC(=O)c1cnn2c(NC(C)C(C)(C)C)c(-c3ccc(F)cc3Cl)c(Cl)nc12 (stereo not shown) [CH(CH3)—C(CH3)3, H, 2-Cl-4-F-phenyl]
  log P: 4.68

## COC(=O)c1cnn2c(NC(C)C(C)(C)C)c(-c3c(F)cccc3Cl)c(Cl)nc12 (stereo not shown) [CH(CH3)—C(CH3)3, H, 2-Cl-6-F-phenyl]
  log P: 4.51

## COC(=O)c1cnn2c(NC(C)C(C)(C)C)c(-c3ccccc3Cl)c(Cl)nc12 (stereo not shown) [CH(CH3)—C(CH3)3, H, 2-Cl-phenyl]
  log P: 4.61

## COC(=O)c1cnn2c(NC(C)C(C)(C)C)c(-c3ncncc3F)c(Cl)nc12 (stereo not shown) [CH(CH3)—C(CH3)3, H, 5-F-pyrimidin-4-yl]
  log P: 3.15

## COC(=O)c1cnn2c(NC(C)C(C)C)c(-c3ccc(F)cc3Cl)c(Cl)nc12 (stereo not shown) [CH(CH3)—CH(CH3)2, H, 2-Cl-4-F-phenyl]
  log P: 4.31

## COC(=O)c1cnn2c(NC(C)C(C)C)c(-c3c(F)cccc3Cl)c(Cl)nc12 (stereo not shown) [CH(CH3)—CH(CH3)2, H, 2-Cl-6-F-phenyl]
  log P: 4.12

## COC(=O)c1cnn2c(NC(C)C(C)C)c(-c3ccccc3Cl)c(Cl)nc12 (stereo not shown) [CH(CH3)—CH(CH3)2, H, 2-Cl-phenyl]
  log P: 4.21

## C[C@@H](Nc1c(-c2c(F)cccc2Cl)c(Cl)nc2c(C(=O)NS(C)(=O)=O)cnn12)C(C)(C)C [Example 3]
[1]
  log p: 4.19*

## C[C@@H](Nc1c(-c2c(F)cc(F)cc2F)c(Cl)nc2c(C(=O)NS(C)(=O)=O)cnn12)C(C)(C)C [Example 9]
[2]
  log p: 4.16

## C[C@@H](Nc1c(-c2ccc(F)cc2Cl)c(Cl)nc2c(C(=O)NS(=O)(=O)C(F)(F)F)cnn12)C(C)(C)C [Example 14]
[2]
  log p: 3.77

## C[C@@H](Nc1c(-c2ccc(F)cc2Cl)c(Cl)nc2c(C(=O)NS(C)(=O)=O)cnn12)C(C)(C)C [Example 15]
[2]
  log p: 4.44

## C[C@@H](Nc1c(-c2ccccc2Cl)c(Cl)nc2c(C(=O)NS(C)(=O)=O)cnn12)C(C)(C)C [Example 21]
[1]
  log p: 4.36*

## C[C@@H](Nc1c(-c2c(F)cc(F)cc2Cl)c(Cl)nc2c(C(=O)NS(C)(=O)=O)cnn12)C(C)(C)C [Example 33]
[2]
  log p: 4.38

## C[C@@H](Nc1c(-c2ccc(Cl)cc2Cl)c(Cl)nc2c(C(=O)NS(=O)(=O)C(F)(F)F)cnn12)C(C)(C)C [Example 38]
[2]
  log p: 3.93

## C[C@@H](Nc1c(-c2ccc(Cl)cc2Cl)c(Cl)nc2c(C(=O)NS(C)(=O)=O)cnn12)C(C)(C)C [Example 39]
[1]
  log p: 4.89*

## C[C@@H](Nc1c(-c2c(F)cc(Cl)cc2F)c(Cl)nc2c(C(=O)NS(C)(=O)=O)cnn12)C(C)(C)C [Example 45]
[1]
  log p: 4.55*

## C[C@H](Nc1c(-c2ccc(Cl)cc2Cl)c(Cl)nc2c(C(=O)NS(C)(=O)=O)cnn12)C(F)(F)F [Example 123]
[2]
  log p: 3.99

## CC(C)[C@@H](C)Nc1c(-c2c(F)cccc2Cl)c(Cl)nc2c(C(=O)NS(C)(=O)=O)cnn12 [Example 171]
[1]
  log p: 3.9*
